In the first experiment the target is T1, human Syk (GST-Syk) (Homo sapiens, UniProt P43405).
T1 construct: A cDNA fragment encoding human Syk openreading frame was cloned; made in house; host or cells: Sf21 insect cells (baculovirus, transfer vector pAcG2T)
Description: Syk tyrosine kinase inhibitory assay. The experiment is classed as biochemical. The following applies: Table 11; read-out: Activity grade. An outline of the steps: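 GST-tagged human Syk from baculovirus/Sf21, 0.65 nM final, with 3 μM biotinylated 30-residue activation-loop peptide and 30 μM ATP in Tris pH 8.0/MgCl2 buffer, 0.25% DMSO; 1 h at room temperature. Phosphopeptide captured on streptavidin, detected by europium-labelled anti-phosphotyrosine 4G10 time-resolved fluorescence.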
Consider `COCCN(C)c1ccc(-c2cc3nccn3c(Nc3ccc(OC)cc3)n2)cc1OC` [Example 12-51], for which the IC50 is < 500 nM. With `COc1ccc(Nc2nc(-c3ccc(OC)c(OC)c3)cc3nccn23)cn1` [Example 12-4], the IC50 is < 500 nM. Consider `COc1cc(-c2cc3nccn3c(Nc3ccccc3)n2)ccc1O` [Example 12-19], for which the IC50 was < 500 nM. Same read-out and setting: next, `COc1ccc(-c2cc3nccn3c(Nc3ccncc3)n2)cc1OC` [Example 12-8]: < 500 nM. On the same count and under the same terms, for `COCCN(C)c1ccc(-c2cc3nccn3c(Nc3ccc(Br)cc3)n2)cc1OC` [Example 12-46] the value was < 500 nM; for `COc1ccc(-c2cc3nccn3c(Nc3cnccc3C(N)=O)n2)cc1OC` [Example 12-61], 500 to 2000 nM. The same measure, in the same setting: next, `COCCN(C)c1ccc(-c2cc3nccn3c(Nc3ccccc3)n2)cc1OC` [Example 12-41]: < 500 nM. As to `CCSc1nc(-c2ccc(N(C)CCOC)c(OC)c2)cc2nccn12` [Example 12-50], the IC50 is < 500 nM. Still for that read-out and setting: for `COc1ccc(-c2cc3nccn3c(Nc3ccc(Br)cc3)n2)cc1OC` [Example 12-12] the value was < 500 nM.

The experiment is the same for the next values; noted with them: Table 13.
Turning to `Clc1ccc(-c2cc3ncnn3c(Sc3ccccc3)n2)cn1` [Example 14-9], the Activity grade result is given as “C-D”.

The experiment is the same for the next values; noted with them: Table 13; read-out: Activity grade.
For the compound `COc1ccc(-c2cc3nccn3c(SC3CCCCC3)n2)cc1OC` [Example 14-29], the IC50 is < 500 nM. The same measure, in the same setting: for `COc1ccc(-c2cc3nccn3c(SCCN(C(C)C)C(C)C)n2)cc1OC` [Example 14-19] the value was 500 to 2000 nM; for `COc1ccc(-c2cc3nccn3c(Oc3ccc(Br)cc3)n2)cc1OC` [Example 14-6], 500 to 2000 nM.

Regarding `COc1ccc(-c2cc3nccn3c(SCCc3ccccc3)n2)cc1OC` [Example 14-25], the IC50 was in the range of 500 to 2000 nM. Still for that read-out and setting: next, `CCC(C)Sc1nc(-c2ccc(OC)c(OC)c2)cc2nccn12` (centres unmarked) [Example 14-20]: < 500 nM. The same measure, in the same setting: next, `COc1ccc(-c2cc3nccn3c(SCC(C)C)n2)cc1OC` [Example 14-22]: < 500 nM; `COc1ccc(-c2cc3nccn3c(SCc3cccs3)n2)cc1OC` [Example 14-31]: < 500 nM.

Staying with this experiment, now noted: Table 14; read-out: Activity grade.
As to `COc1ccc(-c2cc3nccn3c(Sc3ccncc3C(=O)O)n2)cc1OC` [Example 15-2], the IC50 was < 500 nM.

Staying with this experiment, now noted: Table 16; read-out: Activity grade.
For `CCSc1nc(-c2ccc(NCCCN3CCCC3=O)c(OC)c2)cc2nccn12` [Example 17-3], the IC50 is < 500 nM. Take `CCSc1nc(-c2ccc(N(C)C)c(OC)c2)cc2nccn12` [Example 17-15]: the IC50 was < 500 nM.

The experiment is the same for the next values; noted with them: Table 17; IC50 classes; read-out: Activity grade.
For `COc1ccc(-c2cc3nccn3c(Nc3ccc(CC(N)C(=O)O)cc3)n2)cc1OC` (centres unmarked) [Example 30], the IC50 is < 500 nM.

On to `COc1cc(-c2cc3nccn3c(Nc3ncccc3C(N)=O)n2)ccc1N1CCOCC1` [Example 38], for which the IC50 is < 500 nM. As to `COc1ccc(-c2cc3nccn3c(Sc3ccc(CCC(=O)NCCC#N)cc3)n2)cc1OC` [Example 23], the IC50 was < 500 nM. In the case of `COc1ccc(-c2cc3nccn3c(Nc3ccc(C(=O)NCC(O)CO)cc3)n2)cc1OC` (centres unmarked) [Example 5], the IC50 was < 500 nM. As to `COc1ccc(-c2cc3nccn3c(Sc3ccc(CCC(=O)N(C)C)cc3)n2)cc1OC` [compound 17], the IC50 was < 500 nM. On the same count and under the same terms, next, `COc1ccc(-c2cc3nccn3c(Nc3ccc(C(=O)N(C)CCO)cc3)n2)cc1OC` [compound 6]: < 500 nM.

Consider `COc1ccc(-c2cc3nccn3c(Cc3ccccc3)n2)cc1OC` [Example 35], for which the IC50 fell in the range of 2000 to 10000 nM.

The experiment is the same for the next values; noted with them: in vitro; compounds as yielded by solid phase synthesis, purity about 40 to 90%.
Turning to `CCSc1nc(-c2ccc(S(N)(=O)=O)c(OC)c2)cc2nccn12` [Example 2-7], the “Activity grade (IC50 class)” value is reported as “C-D”.

Consider `COc1ccc(-c2cc3nccn3c(N3CCN(c4ccc(C(F)(F)F)cn4)CC3)n2)cc1OC` [Example 9-50], for which the “Activity grade (IC50 class)” value is reported as “C-D”. In the case of `CCSc1nc(-c2ccc(S(=O)(=O)N3CCN(C)CC3)c(OC)c2)cc2nccn12` [Example 2-9], the “Activity grade (IC50 class)” value is “C-D”. Still for that read-out and setting: next, `COc1ccc(-c2cc3nccn3c(N(C)c3ccc(C(=O)O)cc3)n2)cc1OC` [Example 11-42]: “C-D”.

The same experiment, now with this note: in vitro; compounds as yielded by solid phase synthesis, purity about 40 to 90%; read-out: Activity grade (IC50 class).
As to `COc1ccc(-c2cc3nccn3c(N(C)c3ccccc3OC)n2)cc1OC` [Example 11-25], the IC50 is 500 to 2000 nM. Same read-out and setting: next, `CCSc1nc(-c2ccsc2)cc2nccn12` [Example 8-5]: 500 to 2000 nM; `CCSc1nc(-c2ccc(OCCCN(C)CC)c(OC)c2)cc2nccn12` [Example 5-2]: < 500 nM. As for `COc1ccc(-c2cc3nccn3c(N3CCN(c4ccc(C(C)=O)cc4)CC3)n2)cc1OC` [Example 9-36], the IC50 was 2000 to 10000 nM. Still for that read-out and setting: for `CNC(=O)c1ccccc1Nc1nc(-c2ccc(OC)c(OC)c2)cc2nccn12` [Example 11-99] the value was < 500 nM.

On to `COc1cc(-c2cc3nccn3c(Nc3ccccc3C(N)=O)n2)ccc1N1CCOCC1` [Example 9-99], for which the IC50 is < 500 nM.

For `COC(=O)CCCc1ccc(Nc2nc(-c3ccc(OC)c(OC)c3)cc3nccn23)cc1` [Example 9-25], the IC50 is 500 to 2000 nM. Consider `CCSc1nc(-c2cccc(OC)c2)cc2nccn12` [Example 8-1], for which the IC50 was 500 to 2000 nM. On the same count and under the same terms, for `C=CCN(c1ccccc1)c1nc(-c2ccc(OC)c(OC)c2)cc2nccn12` [Example 11-47] the value was < 500 nM; for `COc1ccc(-c2cc3nccn3c(N3CCN(c4ccc(C)cc4)CC3)n2)cc1OC` [Example 9-44], 2000 to 10000 nM. The same measure, in the same setting: for `COc1ccc(-c2cc3nccn3c(Nc3ccc4[nH]nnc4c3)n2)cc1OC` [Example 11-12] the value was < 500 nM; for `COc1ccc(-c2cc3nccn3c(N3CCN(C(C)=O)CC3)n2)cc1OC` [Example 9-49], 500 to 2000 nM. In the case of `COc1ccc(-c2cc3ncnn3c(Nc3ccccc3C(N)=O)n2)cc1OC` [Example 11-102], the IC50 was < 500 nM. Take `CCOC(=O)N1CCN(c2nc(-c3ccc(OC)c(OC)c3)cc3nccn23)CC1` [Example 9-72]: the IC50 was 2000 to 10000 nM. On the same count and under the same terms, next, `COc1ccc(-c2cc3nccn3c(Nc3cc([N+](=O)[O-])ccc3C(N)=O)n2)cc1OC` [Example 11-109]: < 500 nM; `COc1ccc(-c2cc3nccn3c(Sc3ccc(/C=C/C(=O)O)c(C)c3)n2)cc1OC` [Example 13-22]: < 500 nM; `COc1ccc(-c2cc3nccn3c(Sc3ccc(N4CCN(C)CC4)cc3)n2)cc1OC` [Example 13-16]: < 500 nM.

For the compound `COc1ccc(-c2cc3nccn3c(N3C(=O)c4ccccc43)n2)cc1OC` [Example 9], the IC50 is 2000 to 10000 nM. The same measure, in the same setting: for `COc1ccc(-c2cc3nccn3c(N3CCN(c4ccccc4OC)CC3)n2)cc1OC` [Example 9-34] the value was 2000 to 10000 nM; for `COc1ccc(-c2cc3nccn3c(SC(C)C)n2)cc1OC` [Example 9-9], < 500 nM; for `COc1ccc(-c2cc3nccn3c(Nc3ccc(F)cc3F)n2)cc1OC` [Example 11-54], < 500 nM. Still for that read-out and setting: next, `COC(=O)C1CCc2cc(Sc3nc(-c4ccc(OC)c(OC)c4)cc4nccn34)ccc2C1` (centres unmarked) [Example 13-23]: 500 to 2000 nM; `COc1ccc(-c2cc3nccn3c(Nc3ccc4c(c3)n(C)c(=O)n4C)n2)cc1OC` [Example 11-117]: < 500 nM. Turning to `COc1ccc(-c2cc3nccn3c(Nc3ccc(S(C)(=O)=O)cc3)n2)cc1OC` [Example 11-127], the IC50 is < 500 nM.

As for `COc1ccc(-c2cc3nccn3c(Nc3cccc(C(N)=O)c3)n2)cc1OC` [Example 11-11], the IC50 was < 500 nM. Same read-out and setting: next, `COC(=O)C(C)(C)Cc1ccc(Nc2nc(-c3ccc(OC)c(OC)c3)cc3nccn23)cc1` [Example 11-4]: < 500 nM; `COc1ccc(-c2cc3nccn3c(Nc3ccc(C(F)(F)F)cc3)n2)cc1OC` [Example 11-71]: < 500 nM. On the same count and under the same terms, next, `COc1ccc(-c2cc3nccn3c(Nc3cccc(C(C)=O)c3)n2)cc1OC` [Example 11-59]: < 500 nM; `C=CCSc1nc(-c2ccc(OC)c(OC)c2)cc2nccn12` [Example 9-8]: < 500 nM; `COc1ccc(-c2cc3nccn3c(Nc3ccccc3S(C)(=O)=O)n2)cc1OC` [Example 11-119]: < 500 nM. The same measure, in the same setting: next, `COc1ccc(-c2cc3nccn3c(Sc3c(C)cccc3C)n2)cc1OC` [Example 13-9]: 2000 to 10000 nM. On to `CCSc1nc(-c2ccc(OC)c(S(=O)(=O)N3CCN(CCO)CC3)c2)cc2nccn12` [Example 2-3], for which the IC50 was < 500 nM.

Take `COC(=O)CSc1nc(-c2ccc(OC)c(OC)c2)cc2nccn12` [Example 9-88]: the IC50 was < 500 nM. For `COc1ccc(-c2cc3nccn3c(Nc3ccc(Br)cc3F)n2)cc1OC` [Example 11-87], the IC50 was < 500 nM. As to `COC(=O)[C@H](Cc1c[nH]c2ccccc12)Nc1nc(-c2ccc(OC)c(OC)c2)cc2nccn12` [Example 9-85], the IC50 is 2000 to 10000 nM.

As for `CCSc1nc(-c2ccc(OC(C)C)c(OC)c2)cc2nccn12` [Example 3-5], the IC50 is < 500 nM. Still for that read-out and setting: next, `COC(=O)c1ccc(Nc2nc(-c3ccc(OC)c(OC)c3)cc3nccn23)cc1` [Example 11-26]: < 500 nM. Still for that read-out and setting: for `COc1ccc(-c2cc3nccn3c(Sc3c(Cl)cccc3Cl)n2)cc1OC` [Example 13-10] the value was 500 to 2000 nM. Still for that read-out and setting: next, `COc1ccc(-c2cc3nccn3c(Nc3cccc(S(C)(=O)=O)c3)n2)cc1OC` [Example 11-120]: < 500 nM; `COc1ccc(-c2cc3nccn3c(Sc3cc(C)ccc3C)n2)cc1OC` [Example 13-1]: 500 to 2000 nM; `COc1ccc(-c2cc3ncnn3c(Nc3ccccc3)n2)cc1OC` [Example 9.79]: < 500 nM. As for `CCOCCOc1cc(-c2cc3nccn3c(SCC)n2)ccc1OC` [Example 4-6], the IC50 was < 500 nM. Regarding `CCSc1nc(-c2ccc(OCCCN3CCSCC3)c(OC)c2)cc2nccn12` [Example 5-9], the IC50 is < 500 nM.

These data come from patent publication US6911443B2 (Bayer Aktiengesellschaft, priority 2000, dated 2005).
